Results on 1 molecule are retold here after paper doi:10.1101/2023.03.31.535138v1 (biorxiv, 2023).

Each structure is given as a SMILES string.

A word on the Ki: it is the dissociation constant of the complex between target and ligand, obtained from inhibition or displacement.

This assay deals with T1, NudC (Escherichia coli, UniProt P32664).
T1 sequence (P32664 1-257): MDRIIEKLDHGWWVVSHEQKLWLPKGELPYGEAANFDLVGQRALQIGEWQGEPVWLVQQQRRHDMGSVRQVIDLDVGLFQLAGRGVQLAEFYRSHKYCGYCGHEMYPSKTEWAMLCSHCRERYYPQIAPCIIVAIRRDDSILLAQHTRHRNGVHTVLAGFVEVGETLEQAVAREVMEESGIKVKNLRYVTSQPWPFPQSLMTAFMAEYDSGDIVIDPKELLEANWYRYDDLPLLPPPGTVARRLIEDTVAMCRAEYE
Description: in vitro de-capping of NAD-RNA, gel assay, NudC activity plotted against ppGpp. Format: biochemical.

In turn, `Nc1nc2c(ncn2[C@@H]2O[C@H](COP(=O)(O)OP(=O)(O)O)[C@@H](OP(=O)(O)OP(=O)(O)O)[C@H]2O)c(=O)[nH]1` [ppGpp] displayed a Ki of roughly 70 µM.
